Laboratory results published in patent publication US20200362301A1, “EFFICIENT, SCALABLE PRODUCTION OF HUMAN RETINAL PROGENITORS IN VITRO” (Wisconsin Alumni Research Foundation, priority 2019, published 2020).

Assays:
Assay type in all cases: cell-based, human
[1] = system: wildtype cells (H9 hESCs) in retinal differentiation; test: qPCR of retinal gene (EFTF) expression in wildtype cells during retinal differentiation under WNT agonist/antagonist
Protocol: WNT8B has a restricted expression in the developing dorsal forebrain (Lako et al., 1998) and plays a repressive role in retinal fate specification (Liu et al., 2010). […] Given the direct connection between PAX6D and WNT8B, we hypothesized that PAX6D regulates retinal specification by repressing WNT8B transcription and thus WNT activity. Indeed, treatment with WNT agonist (CHIR99021, 3 μM) in wildtype cells from day 0 to day 10 suppressed the expression EFTFs. In contrast, treatment with a WNT antagonist (IWR1, 2.5 μM) in wildtype cells enhanced the expression of EFTFs (FIG. 8B).
(§1) Retinal differentiation from human pluripotent stem cells was performed using the published protocol (Zhong et al., 2014). Briefly, hESCs were passaged to Vitronectin-coated plates and cultured to 60-70% confluency. On day 0 of retinal differentiation, cells were enzymatically detached by dispase (1 mg/ml) and cultured in suspension with E8 medium to form embryoid bodies (EB). […]
(§2) Total RNA was isolated with the RNeasy Plus Mini Kit according to the manufacturer's instructions. For quantitative PCR (qPCR), cDNA was synthesized using PrimeScrip RT Reagent Kit. qPCR was performed using iTaq Universal SYBR Green Supermix. […]

[2] = system: PAX6D KO cells; test: qPCR of retinal gene expression in PAX6D KO cells treated with WNT antagonist (rescue of retinal differentiation); details: treatment from day 0 to day 10 of retinal differentiation
Description: (§3) We then asked if the failure of retinal specification in the PAX6D KO cells is rescued by regulating WNT signaling. Treatment of the PAX6D KO cells with IWR1 during retinal differentiation from day 0 to day 10 increased the expression of retinal related genes, including VSX2, LHX2, HES5, SIX3 and SIX6 (FIG. 8C). […] To further corroborate the role of WNTs in mediating the function of PAX6D in retinal specification, we then activated WNT pathway signaling under PAX6D induction along retinal differentiation.
(§4) PAX6 KO and PAX6D KO cell lines were designed by inserting the PGK-Puromycin in exon 8 and exon alpha of the PAX6 gene, respectively, which terminates the normal translation of PAX6 genes early and PAX6D isoform specifically. The PAX6 KO cells were then used to generate PAX6A TetOn and PAX6D TetOn by inserting the TetOn-PAX6A-3×FLAG and TetOn-PAX6D-3×FLAG into the AAVS1 site of PAX6 KO genome.
Retinal differentiation from human pluripotent stem cells was performed using the published protocol (Zhong et al., 2014). Briefly, hESCs were passaged to Vitronectin-coated plates and cultured to 60-70% confluency. […]
as §2

[3] = system: PAX6D TetOn cells; test: qPCR of retinal gene expression in PAX6D TetOn cells with DOX induction, with or without WNT agonist
Description: (§5) We then examined the retinal progenitor population when PAX6A or PAX6D was induced. We turned on PAX6A and PAX6D separately in PAX6 KO cells after neuroepithelial cells were generated at day 6 and monitored the retinal progenitor generation along retinal differentiation. […] Thus, PAX6D but not PAX6A restores the PAX6 function in retinal specification.
as §3, §4
as §1, with “(EB). EBs were gradually transitioned into neural induction medium (NIM) containing DMEM/F12 (1:1), 1% N2 and 1×NEAA by replacing the medium with a 3:1 ratio of E8/NIM on day 1, 1:1 on day 2, and 100% NIM on day 3.” for “(EB).”
as §2

[4] = system: PAX6D TetOn cells; test: Flow cytometry of SOX1-/SOX2+ retinal progenitor population in PAX6D TetOn cells; details: PAX6D induced (from 2.71% without induction)
Protocol: as §5
(§6) Flow cytometry was performed using Transcription Factor Buffer Set which is designed for transcription factor staining following manufacturer's instruction. Briefly, single cells were prepared using TrypLE Express Enzyme and fixed in the fixation buffer provided by the kit at 2-8° C. for 45 min. After 3 washings with the permeable buffer, the primary antibodies (PE-SOX1, V450-SOX2) were added to cells for 45 min at 2-8° C. in a light-tight box. The cells were washed 3 times before analyzed by flow cytometry (BD LSR or BD LSRII). Data analysis was performed using FlowJo.

[5] = system: PAX6A TetOn cells; test: Flow cytometry of SOX1-/SOX2+ retinal progenitor population in PAX6A TetOn cells; details: PAX6A induced (from 2.45% without induction)
Protocol: as §5, §6

[6] = PAX6D TetOn in PAX6 KO, DOX for 7 days from day 6 of retinal differentiation

## O=C(Nc1cccc2cccnc12)c1ccc(N2C(=O)[C@@H]3[C@H](C2=O)[C@@H]2C=C[C@H]3C2)cc1 [IWR1]
[1]; WNT antagonist 2.5 μM
  expression of EFTFs (qPCR): enhanced
[2]
  expression of retinal related genes, including VSX2, LHX2, HES5, SIX3 and SIX6: increased

## Cc1c[nH]c(-c2cnc(NCCNc3ccc(C#N)cn3)nc2-c2ccc(Cl)cc2Cl)n1 [CHIR99021]
[1]; WNT agonist 3 μM from day 0 to day 10 of retinal differentiation
  expression of EFTFs (qPCR): suppressed
[3]; PAX6D TetOn cells induced by DOX, WNT agonist from day 0 to day 10
  PAX6D-induced retinal differentiation (expression of VSX2, LHX2, SIX6, NR2F1 and VAX2 at day 10): completely blocked

## C[C@H]1c2cccc(O)c2C(=O)C2=C(O)[C@]3(O)C(=O)C(C(N)=O)=C(O)[C@@H](N(C)C)[C@@H]3[C@@H](O)[C@@H]21 [DOX, doxycycline]
[3]; [6]
  VAX2 expression increase: 2 fold
  VSX2 expression increase: 3 fold
[4]
  SOX1-/SOX2+ retinal progenitor population (flow cytometry): 23.1%
[5]
  SOX1-/SOX2+ retinal progenitor population (flow cytometry): 2.22%
